Assay [1] deals with Human KLK1 (Homo sapiens (Human), UniProt P06870). The assay can be described thus: Determination of the IC50 for KLK1. The settings on record: human KLK1, 25° C., substrate H-DVal-Leu-Arg-AFC. The assay is classed as biochemical. Here is the method: Determination of the IC50 for KLK1
Human KLK1 (Callbiochem) was incubated at 25° C. with the fluorogenic substrate H-DVal-Leu-Arg-AFC and various concentrations of the test compound. Residual enzyme activity (initial rate of reaction) was determined by measuring the change in […] at 410 nm and the IC50 value for the test compound was determined.

In assay [2] the target is Human plasma kallikrein (Homo sapiens (Human), UniProt P03952). As to the kind of experiment: Determination of the IC50 for plasma kallikrein. Type of assay: biochemical. Particulars: read-out: IC50 (human PKal). How it is done:
Determination of the IC50 for Plasma Kallikrein
Human plasma kallikrein (Protogen) was incubated at 25° C. with the fluorogenic substrate H-DPro-Phe-Arg-AFC and various concentrations of the test compound. Residual enzyme activity (initial rate of reaction) was determined by measuring the change in […] at 410 nm and the IC50 value for the test compound was determined.

Chain of Human KLK1 (P06870 25-262): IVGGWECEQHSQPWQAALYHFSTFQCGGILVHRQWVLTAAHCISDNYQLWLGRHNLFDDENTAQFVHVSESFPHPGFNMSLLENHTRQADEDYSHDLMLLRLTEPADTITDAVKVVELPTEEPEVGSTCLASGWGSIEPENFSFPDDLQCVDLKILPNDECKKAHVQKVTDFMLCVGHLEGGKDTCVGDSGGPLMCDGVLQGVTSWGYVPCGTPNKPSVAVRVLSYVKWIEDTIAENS
Chain of Human plasma kallikrein (P03952 391-638): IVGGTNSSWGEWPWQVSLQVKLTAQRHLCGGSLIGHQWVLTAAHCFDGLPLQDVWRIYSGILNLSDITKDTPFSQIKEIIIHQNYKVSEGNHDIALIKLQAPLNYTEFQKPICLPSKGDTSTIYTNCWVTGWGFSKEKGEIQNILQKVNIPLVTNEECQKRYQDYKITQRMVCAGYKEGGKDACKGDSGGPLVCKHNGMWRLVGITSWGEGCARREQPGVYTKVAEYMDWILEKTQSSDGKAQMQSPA
Chain of Human plasma kallikrein (P03952 20-390 partner): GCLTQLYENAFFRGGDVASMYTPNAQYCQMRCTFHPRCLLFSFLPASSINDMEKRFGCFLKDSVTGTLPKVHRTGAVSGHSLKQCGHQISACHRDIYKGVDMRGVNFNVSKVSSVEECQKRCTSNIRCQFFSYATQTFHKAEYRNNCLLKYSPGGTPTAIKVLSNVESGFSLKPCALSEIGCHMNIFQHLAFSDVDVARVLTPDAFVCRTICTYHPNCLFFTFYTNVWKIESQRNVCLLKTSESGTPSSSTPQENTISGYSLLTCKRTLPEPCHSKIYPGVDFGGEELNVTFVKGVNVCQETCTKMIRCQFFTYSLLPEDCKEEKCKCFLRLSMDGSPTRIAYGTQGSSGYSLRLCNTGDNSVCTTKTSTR

With `CN(C)C(=O)c1cccc(Cn2cc(C(=O)NCCOc3cccc(Cl)c3)c(N)n2)c1` [Example 65, 3-amino-N-[2-(3-chlorophenoxy)ethyl]-1-{[3-(dimethylcarbamoyl)phenyl]methyl}pyrazole-4-carboxamide], the concentration for half-maximal inhibition (IC50) in assay [1] was over 40 µM; in assay [2], over 10 µM.

As to `COCc1nn(Cc2ccc(Cn3ccccc3=O)cc2)cc1C(=O)NCCOc1cc(Cl)cc(OC)c1` [Example 11, N-[2-(3-chloro-5-methoxyphenoxy)ethyl]-3-(methoxymethyl)-1-({4-[(2-oxopyridin-1-yl)methyl]phenyl}methyl)pyrazole-4-carboxamide], the IC50 in assay [1] and in assay [2] was over 10 µM throughout.

Consider `Nc1nn(Cc2ccnc(N3CCCC3=O)c2)cc1C(=O)NCCOc1cccc(Cl)c1` [Example 94, 3-amino-N-[2-(3-chlorophenoxy)ethyl]-1-{[2-(2-oxopyrrolidin-1-yl)pyridin-4-yl]methyl}pyrazole-4-carboxamide], for which the IC50 in assay [1] was over 40 µM; in assay [2], 3.14 µM.

Regarding `Nc1nn(Cc2ccc(N3CCCC3=O)nc2)cc1C(=O)NCCOc1cccc(Cl)c1` [Example 96, 3-amino-N-[2-(3-chlorophenoxy)ethyl]-1-{[6-(2-oxopyrrolidin-1-yl)pyridin-3-yl]methyl}pyrazole-4-carboxamide], the IC50 in assay [1] was over 40 µM; in assay [2], 2.23 µM.

For `Nc1nn(Cc2cccc(C(=O)O)c2)cc1C(=O)NCCOc1cccc(Cl)c1` [Example 63, 3-[(3-amino-4-{[2-(3-chlorophenoxy)ethyl]carbamoyl}pyrazol-1-yl)methyl]benzoic acid], the results for the IC50 in assay [1] and in assay [2] were over 40 µM and over 10 µM, respectively.

`COCc1nn(Cc2ccc(Cn3ccccc3=O)cc2)cc1C(=O)NCCOc1cc(Cl)cnn1` [Example 46, N-{2-[(5-chloropyridazin-3-yl)oxy]ethyl}-3-(methoxymethyl)-1-({4-[(2-oxopyridin-1-yl)methyl]phenyl}methyl)pyrazole-4-carboxamide]: the IC50 in assay [1] and in assay [2] was over 10 µM throughout.

Take `Nc1nn(Cc2ccc(Cn3ccccc3=O)cc2F)cc1C(=O)NCCOc1cccc(Cl)c1` [Example 101, 3-amino-N-[2-(3-chlorophenoxy)ethyl]-1-({2-fluoro-4-[(2-oxopyridin-1-yl)methyl]phenyl}methyl)pyrazole-4-carboxamide]: the IC50 in assay [1] is over 40 µM; in assay [2], 0.0076 µM.

Turning to `CN(C)C(=O)c1ccc(Cn2cc(C(=O)NCCOc3cccc(Cl)c3)c(N)n2)cc1` [Example 59, 3-amino-N-[2-(3-chlorophenoxy)ethyl]-1-{[4-(dimethylcarbamoyl)phenyl]methyl}pyrazole-4-carboxamide], the IC50 in assay [1] was over 40 µM; in assay [2] it was over 10 µM.

In the case of `COCc1nn(Cc2ccc(Cn3ccc(C)cc3=O)cc2)cc1C(=O)NCCOc1cccc(Cl)c1` [Example 104, N-[2-(3-chlorophenoxy)ethyl]-3-(methoxymethyl)-1-({4-[(4-methyl-2-oxopyridin-1-yl)methyl]phenyl}methyl)pyrazole-4-carboxamide], the IC50 in assay [1] was over 40 µM; in assay [2], 0.413 µM.

`Nc1nn(Cc2ccc(Cn3c(F)cccc3=O)cc2)cc1C(=O)NCCOc1cccc(Cl)c1` [Example 99, 3-amino-N-[2-(3-chlorophenoxy)ethyl]-1-({4-[(2-fluoro-6-oxopyridin-1-yl)methyl]phenyl}methyl)pyrazole-4-carboxamide]: the IC50 in assay [1] was over 40 µM; in assay [2], 2.07 µM.

For the compound `CC(CNC(=O)c1cn(Cc2ccc(Cn3ccccc3=O)cc2)nc1N)Oc1cccc(Cl)c1` (racemic) [Example 118, 3-amino-N-[(2R/S)-2-(3-chlorophenoxy)propyl]-1-({4-[(2-oxopyridin-1-yl)methyl]phenyl}methyl)pyrazole-4-carboxamide], the IC50 in assay [1] is over 40 µM; in assay [2], 0.0133 µM.

Regarding `Nc1nn(Cc2ccc(C(=O)N3CCCCC3)cc2)cc1C(=O)NCCOc1cccc(Cl)c1` [Example 60, 3-amino-N-[2-(3-chlorophenoxy)ethyl]-1-({4-[(piperidin-1-yl)carbonyl]phenyl}methyl)pyrazole-4-carboxamide], the IC50 in assay [1] was over 40 µM; in assay [2], over 10 µM.

With `Nc1nn(Cc2ccc(-c3cccnc3)nc2)cc1C(=O)NCCOc1cccc(Cl)c1` [Example 97, 3-amino-N-[2-(3-chlorophenoxy)ethyl]-1-{[6-(pyridin-3-yl)pyridin-3-yl]methyl}pyrazole-4-carboxamide], the IC50 in assay [1] is over 40 µM; in assay [2], 1.13 µM.

For the compound `Nc1nn(Cc2ccc(Cn3cc(F)ccc3=O)cc2)cc1C(=O)NCCOc1cccc(Cl)c1` [Example 100, 3-amino-N-[2-(3-chlorophenoxy)ethyl]-1-({4-[(5-fluoro-2-oxopyridin-1-yl)methyl]phenyl}methyl)pyrazole-4-carboxamide], the IC50 in assay [1] was over 40 µM; in assay [2], 0.0062 µM.

As for `CN(CC(=O)O)c1cc(Cn2cc(C(=O)NCCOc3cccc(Cl)c3)c(N)n2)ccn1` [Example 67, ({4-[(3-amino-4-{[2-(3-chlorophenoxy)ethyl]carbamoyl}pyrazol-1-yl)methyl]pyridin-2-yl}(methyl)amino)acetic acid], the IC50 is over 40 µM in assay [1] and over 10 µM in assay [2].

Take `N#Cc1nn(Cc2ccc(Cn3ccccc3=O)cc2)cc1C(=O)NCCOc1cccc(Cl)c1` [Example 38, N-[2-(3-chlorophenoxy)ethyl]-3-cyano-1-({4-[(2-oxopyridin-1-yl)methyl]phenyl}methyl)pyrazole-4-carboxamide]: the IC50 in assay [1] was over 40 µM; in assay [2], 0.0065 µM.

For `Nc1nn(Cc2cccc(Cl)n2)cc1C(=O)NCCOc1cccc(Cl)c1` [Example 81, 3-amino-N-[2-(3-chlorophenoxy)ethyl]-1-[(6-chloropyridin-2-yl)methyl]pyrazole-4-carboxamide], the IC50 in assay [1] is over 40 µM; in assay [2], over 10 µM.

As to `Cc1nn(Cc2ccc(Cn3ccccc3=O)cc2)c(C)c1C(=O)NCCOc1cccc(Cl)c1` [Example 103, N-[2-(3-chlorophenoxy)ethyl]-3,5-dimethyl-1-({4-[(2-oxopyridin-1-yl)methyl]phenyl}methyl)pyrazole-4-carboxamide], the results for the IC50 in assay [1] and in assay [2] were over 40 µM and over 10 µM, respectively.

As for `CNC(=O)c1cccc(Cn2cc(C(=O)NCCOc3cccc(Cl)c3)c(N)n2)c1` [Example 64, 3-amino-N-[2-(3-chlorophenoxy)ethyl]-1-{[3-(methylcarbamoyl)phenyl]methyl}pyrazole-4-carboxamide], the IC50 in assay [1] is over 40 µM; in assay [2] it was over 10 µM.

Turning to `Nc1nn(Cc2ccc(Cn3ccccc3=O)cn2)cc1C(=O)NCCOc1cccc(Cl)c1` [Example 102, 3-amino-N-[2-(3-chlorophenoxy)ethyl]-1-({5-[(2-oxopyridin-1-yl)methyl]pyridin-2-yl}methyl)pyrazole-4-carboxamide], the IC50 in assay [1] is over 40 µM; in assay [2], 0.0721 µM.

On to `Nc1c(C(=O)NCCOc2cccc(Cl)c2)cnn1Cc1ccc(C(=O)N2CCCC2)cc1` [Example 45, 5-amino-N-[2-(3-chlorophenoxy)ethyl]-1-({4-[(pyrrolidin-1-yl)carbonyl]phenyl}methyl)pyrazole-4-carboxamide], for which the IC50 in assay [1] is over 40 µM; in assay [2], 6.25 µM.

Broadly, the IC50 is the concentration that inhibits the measured activity by half.

The record behind these values is US10781181B2, “N-((het) arylmethyl)-heteroaryl-carboxamides compounds as plasma kallikrein inhibitors” (Kalvista Pharmaceuticals Limited, priority 2014, dated 2020).
